Patent US8637485B2, “5′,-substituted adenosynes preparation thereof and use as inhibitors of S-adenosylmethionine decarboxylase” (Southern Research Institute, priority 2007, dated 2014)
Counter-ions that a name gives are not always drawn.

Target: T1, hAdoMetDC (Homo sapiens, UniProt P17707)
T1 construct: the enzyme undergoes autoprocessing to give the α and the β subunits; made in house; host or cells: E. coli JM109 (pQE30-based plasmid)
T1 sequence (P17707 1-67 limits assumed): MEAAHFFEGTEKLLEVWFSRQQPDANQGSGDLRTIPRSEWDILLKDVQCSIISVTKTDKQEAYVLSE
T1 sequence (P17707 68-328 limits assumed): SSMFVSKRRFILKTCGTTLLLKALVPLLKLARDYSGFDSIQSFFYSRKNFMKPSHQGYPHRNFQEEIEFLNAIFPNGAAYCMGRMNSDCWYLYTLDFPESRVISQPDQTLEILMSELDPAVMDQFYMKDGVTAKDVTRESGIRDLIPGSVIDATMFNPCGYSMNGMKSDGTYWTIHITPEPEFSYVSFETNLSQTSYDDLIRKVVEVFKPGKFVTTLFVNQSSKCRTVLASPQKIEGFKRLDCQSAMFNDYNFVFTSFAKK
Assay: Assay of AdoMetDC activity (release of 14CO2 from S-adenosyl-L-[carboxy-14C]methionine) and determination of inhibitor IC50 values
Assay type: biochemical
Details: at 100 μM
Description: Assay of AdoMetDC Activity and Determination of Inhibitor IC50 Values
(§1) AdoMetDC was assayed by measuring the release of ^14CO2 from S-adenosyl-L-[carboxy-^14C]methionine (Amersham Pharmacia Biotech, ˜60 mCi/mmol) (36). […] For determination of the abilities of compounds to inhibit AdoMetDC, the enzyme activity was determined in the presence of no inhibitor and at least 5 concentrations of each potential inhibitor. The IC50 values were determined from curve fitting to plots of the inhibitor concentration versus the % inhibition of AdoMetDC.
as §1

inhibition	inhibition at 100 µM	SMILES
<5% inhibition at 100 μM	–	CN(CCON)C[C@H]1O[C@@H](n2c(-c3ccccc3)nc3c(N)ncnc32)[C@H](O)[C@@H]1O.CN(CCON)C[C@H]1O[C@@H](n2c(-c3ccccc3)nc3c(N)ncnc32)[C@H](O)[C@@H]1O.O=S(=O)(O)O [Compound 7c, 5′-[(2-Aminooxyethyl)methylamino]-5′-deoxy-8-phenyladenosine sulfate (2:1 salt)]
<5% inhibition at 100 μM	–	CN(CCCCON)C[C@H]1O[C@@H](n2c(-c3ccccc3)nc3c(N)ncnc32)[C@H](O)[C@@H]1O.O=S(=O)(O)O [Compound 9b, 5′-[(4-Aminooxybutyl)methylamino]-5′-deoxy-8-phenyladenosine sulfate (1.75:1 salt)]
<5% inhibition at 100 μM	–	Cc1nc2c(N)ncnc2n1[C@@H]1O[C@H](CN(C)CC(N)=O)[C@@H](O)[C@H]1O.O=S(=O)(O)O [Compound 13f, 5′-[(Carboxamidomethyl)methylamino]-5′-deoxy-8-methyladenosine sulfate (1.45:1 salt)]
<5% inhibition at 100 μM	–	CN(CCCN)C[C@H]1O[C@@H](n2c(-c3ccccc3)nc3c(N)ncnc32)[C@H](O)[C@@H]1O.O=S(=O)(O)O [Compound 14b, 5′-[(3-Aminopropyl)methylamino]-5′-deoxy-8-phenyladenosine sulfate (2.2:1 salt)]
–	< 5%	CN(CCN)C[C@H]1O[C@@H](n2cnc3c(N)ncnc32)[C@H](O)[C@@H]1O [Compound 14e, 5′-[(2-Aminoethyl)methylamino]-5′-deoxyadenosine]
<5% inhibition at 100 μM	–	CNCCCNC[C@H]1O[C@@H](n2c(NC)nc3c(N)ncnc32)[C@H](O)[C@@H]1O.O=S(=O)(O)O [Compound 15a, 5′-deoxy-8-(methylamino)-5′(3-methylaminopropylamino)adenosine sulfate (2.4:1 salt)]
<5% inhibition at 100 μM	–	CNCCCNC[C@H]1O[C@@H](n2c(-c3ccccc3)nc3c(N)ncnc32)[C@H](O)[C@@H]1O.O=S(=O)(O)O [Compound 15b, 5′-deoxy-5′-(3-methylaminopropylamino)-8-phenyladenosine sulfate (1.7:1 salt)]
–	< 5%	CNCCNC[C@H]1O[C@@H](n2cnc3c(N)ncnc32)[C@H](O)[C@@H]1O [Compound 15c, 5′-deoxy-5′-(2-methylaminoethylamino)adenosine]
–	< 5%	CNCCNC[C@H]1O[C@@H](n2c(C)nc3c(N)ncnc32)[C@H](O)[C@@H]1O [Compound 15d, 5′-deoxy-8-methyl-5′-(2-methylaminoethylamino)adenosine]
–	< 5%	CN(CCNC(=N)N)C[C@H]1O[C@@H](n2cnc3c(N)ncnc32)[C@H](O)[C@@H]1O [Compound 18a, 5′-Deoxy 5′-[(2-guanidinoethyl)methylamino]adenosine]

Same assay, conditions: at least 5 concentrations; curve fit of inhibitor concentration versus % inhibition of hAdoMetDC

IC50	SMILES
0.086 µM	CNc1nc2c(N)ncnc2n1[C@@H]1O[C@H](CN(C)CCON)[C@@H](O)[C@H]1O [Compound 7b, 5′-[(2-Aminooxyethyl)methylamino]-5′-deoxy-8-(methylamino)adenosine sulfate (2.1:1 salt)]
0.049 µM	CNc1nc2c(N)ncnc2n1[C@@H]1O[C@H](CN(C)CCCCON)[C@@H](O)[C@H]1O [Compound 9a, 5′-[(4-Aminooxybutyl)methylamino]-5′-deoxy-8-(methylamino)adenosine sulfate (0.4:1 salt)]
0.011 µM	CN(CCCCON)C[C@H]1O[C@@H](n2c(=O)[nH]c3c(N)ncnc32)[C@H](O)[C@@H]1O [Compound 9c, 5′-[(4-Aminooxybutyl)methylamino]-5′-deoxy-8-oxoadenosine sulfate (1.9:1 salt)]
0.005 µM	Cc1nc2c(N)ncnc2n1[C@@H]1O[C@H](CN(C)CCCCON)[C@@H](O)[C@H]1O [Compound 9d, 5′-[(4-Aminooxybutyl)methylamino]-5′-deoxy-8-methyladenosine sulfate (1.9:1 salt)]
0.018 µM	CN(CCCCON)C[C@H]1O[C@@H](n2cnc3c(N)ncnc32)[C@H](O)[C@@H]1O [Compound 9f, 5′-[(4-Aminooxybutyl)methylamino]-5′-deoxyadenosine sulfate (2:1 salt)]
4 µM	CCc1nc2c(N)ncnc2n1[C@@H]1O[C@H](CN(C)CCC(N)=O)[C@@H](O)[C@H]1O [Compound 13e, 5′-[(2-Carboxamidoethyl)methyamino]-5′-deoxy-8-ethyladenosine sulfate (1.1:1 salt)]
7 µM	CN(CCC(N)=O)C[C@H]1O[C@@H](n2cnc3c(N)ncnc32)[C@H](O)[C@@H]1O [Compound 13j, 5′-[(2-Carboxamidoethyl)methylamino]-5′-deoxyadenosine sulfate (1.9:1 salt)]
0.17 µM	Cc1nc2c(N)ncnc2n1[C@@H]1O[C@H](CN(C)CCC(=O)NN)[C@@H](O)[C@H]1O [Compound 13k, 5′-Deoxy-5′-[(2-hydrazinocarbonylethyl)methylamino]-8-methyladenosine sulfate (2:1 salt)]
1.5 µM	CN(CCC(=O)NN)C[C@H]1O[C@@H](n2cnc3c(N)ncnc32)[C@H](O)[C@@H]1O [Compound 13l, 5′-Deoxy-5′-[(2-hydrazinocarbonylethyl)methylamino]-adenosine sulfate (2:1 salt)]
31 µM	Cc1nc2c(N)ncnc2n1[C@@H]1O[C@H](CN(C)CC(=O)NN)[C@@H](O)[C@H]1O [Compound 13m, 5′-Deoxy-5′-[(hydrazinocarbonylmethyl)methylamino]-8-methyladenosine]
440 µM	CNc1nc2c(N)ncnc2n1[C@@H]1O[C@H](CN(C)CCCN)[C@@H](O)[C@H]1O [Compound 14a, 5′-[(3-Aminopropyl)methylamino]-5′-deoxy-8-(methylamino)adenosine sulfate (2.4:1 salt)]
500 µM	CN(CCCN)C[C@H]1O[C@@H](n2cnc3c(N)ncnc32)[C@H](O)[C@@H]1O [Compound 14d, 5′-[(3-Aminopropyl)methylamino]-5′-deoxyadenosine sulfate (2:1 salt)]
88 µM	Cc1nc2c(N)ncnc2n1[C@@H]1O[C@H](CN(C)CCN)[C@@H](O)[C@H]1O [Compound 14f, 5′-[(2-Aminoethyl)methylamino]-5′-deoxy-8-methyladenosine]
420 µM	CCc1nc2c(N)ncnc2n1[C@@H]1O[C@H](CN(C)CCCN)[C@@H](O)[C@H]1O [Compound 17d, 5′-[(3-Aminopropyl)methylamino]-5′-deoxy-8-ethyladenosine sulfate (2.5:1 salt)]
157 µM	CN(CCC(=N)NO)C[C@H]1O[C@@H](n2cnc3c(N)ncnc32)[C@H](O)[C@@H]1O [Compound 18c, 5′-Deoxy-5′-[(2-hydroxyamidinoethyl)methylamino]adenosine]
9 µM	CN(C)C[C@H]1O[C@@H](n2cnc3c(N)ncnc32)[C@H](O)[C@@H]1O [Compound 19b, 5′-Deoxy-5′-(N,N-dimethylamino)adenosine]

Same assay, conditions: versus 8-unsubstituted parent compound

reduction in the IC50 value when an 8-methyl substituent was added to the adenine ring	SMILES
3.4 fold	Cc1nc2c(N)ncnc2n1[C@@H]1O[C@H](CN(C)CCCCON)[C@@H](O)[C@H]1O [Compound 9d, 5′-[(4-Aminooxybutyl)methylamino]-5′-deoxy-8-methyladenosine sulfate (1.9:1 salt)]

Same assay, conditions: versus un-substituted parent compound

increase in potency when an adenine 8-methyl substituent was added	SMILES
8 fold	Cc1nc2c(N)ncnc2n1[C@@H]1O[C@H](CN(C)CCON)[C@@H](O)[C@H]1O [Compound 7a, 5′-[(2-Aminooxyethyl)methylamino]-5′-deoxy-8-methyladenosine sulfate (2.2:1 salt)]

Target: T2, AdoMetDC (Homo sapiens, UniProt P17707)
T2 sequence (P17707 1-334): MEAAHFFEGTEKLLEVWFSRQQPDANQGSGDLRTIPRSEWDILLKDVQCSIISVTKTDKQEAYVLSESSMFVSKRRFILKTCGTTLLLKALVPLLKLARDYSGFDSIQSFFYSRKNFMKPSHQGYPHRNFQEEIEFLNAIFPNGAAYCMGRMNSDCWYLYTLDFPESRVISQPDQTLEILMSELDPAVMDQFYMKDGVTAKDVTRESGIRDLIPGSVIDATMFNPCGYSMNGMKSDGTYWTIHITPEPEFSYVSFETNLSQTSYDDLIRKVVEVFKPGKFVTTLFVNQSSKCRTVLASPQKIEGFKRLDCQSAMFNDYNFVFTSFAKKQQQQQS
Assay: not given
Details: previously reported; cited from earlier work

SMILES	Ki
C[S+](C)C[C@H]1O[C@@H](n2cnc3c(N)ncnc32)[C@H](O)[C@@H]1O [Compound 21d, 5′-Deoxy-5′-dimethylsulfonioadenosine chloride]	in the μM range
